Source: patent publication US6737383B1, “Herbicidal oxadiazolidines” (priority 1999, dated 2004)

Columns and labels:
blackgrass = assay: Test B pre/postemergence blackgrass; type: in vivo, Alopecurus myosuroides
In short: (§1)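 Herbicidal effect was estimated by eye on a ten-point control scale after plants spent twelve to sixteen days in a greenhouse following soil or foliar treatment. Foliar sprays targeted plants at one to four leaves; all doses were formulated in a non-phytotoxic solvent with surfactant.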

surinam grass = assay: Test B pre/postemergence surinam grass; type: in vivo, Brachiaria decumbens
In short: as §1

cocklebur = assay: Test B pre/postemergence cocklebur; type: in vivo, Xanthium strumarium
In short: as §1

corn = assay: Test B pre/postemergence corn; type: in vivo, Zea mays
In short: as §1

crabgrass = assay: Test B pre/postemergence crabgrass; type: in vivo, Digitaria sanguinalis
In short: as §1

giant foxtail = assay: Test B pre/postemergence giant foxtail; type: in vivo, Setaria faberii
In short: as §1

morningglory = assay: Test B pre/postemergence morningglory; type: in vivo, Ipomoea hederacea
In short: as §1

pigweed = assay: Test B pre/postemergence pigweed; type: in vivo, Amaranthus retroflexus
In short: as §1

rape = assay: Test B pre/postemergence rape; type: in vivo, Brassica napus
In short: as §1

soybean = assay: Test B pre/postemergence soybean; type: in vivo, Glycine max
In short: as §1

sugar beet = assay: Test B pre/postemergence sugar beet; type: in vivo, Beta vulgaris
In short: as §1

velvetleaf = assay: Test B pre/postemergence velvetleaf; type: in vivo, Abutilon theophrasti
In short: as §1

wild oat = assay: Test B pre/postemergence wild oat; type: in vivo, Avena fatua
In short: as §1

purple nutsedge = assay: Test B pre/postemergence purple nutsedge; type: in vivo, Cyperus rotundus
In short: as §1

smallflower flatsedge = assay: Test B flood test smallflower flatsedge; type: in vivo, Cyperus difformis
In short: (§2)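 Plants were grown to the 2-leaf stage before treatment with test chemical, then held in a greenhouse for twelve to sixteen days. Injury was visually rated against untreated controls on a 0–10 scale, where 0 is no effect and 10 is complete control.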

bamyardgrass = assay: Test B flood test barnyardgrass; type: in vivo, Echinochloa crus-galli
In short: as §2

[1] = Postemergence, Rate 125 g/ha, scale of 0 to 10 where 0 is no effect and 10 is complete control
[2] = Preemergence, Rate 62 g/ha, scale 0 to 10 (0 no effect, 10 complete control)
[3] = Preemergence, Rate 125 g/ha, 0 is no effect, 10 is complete control
[4] = Preemergence, Rate 250 g/ha, scale 0 to 10, 0 is no effect, 10 is complete control
[5] = Preemergence, Rate 500 g/ha, scale 0 to 10 (0 no effect, 10 complete control)
[6] = Rate 62 g/ha, Postemergence, scale of 0 to 10 where 0 is no effect and 10 is complete control
[7] = Rate 250 g/ha, Postemergence, scale 0 to 10, 0 is no effect, 10 is complete control
[8] = Rate 500 g/ha, Postemergence, scale 0 to 10
[9] = Postemergence (flood test species), Rate 125 g/ha, scale of 0 to 10 where 0 is no effect and 10 is complete control
[10] = Rate 62 g/ha, Postemergence section, flood test species, scale of 0 to 10 where 0 is no effect and 10 is complete control
[11] = Rate 250 g/ha, Postemergence (flood test), scale 0 to 10, 0 is no effect, 10 is complete control

With `CCN(CC)C(=O)n1oc(=O)n(Cc2ccccc2)c1=O` [Compound 152] the “Blackgrass plant response rating” value (blackgrass; [1]) was 0, the “Blackgrass plant response rating” value (blackgrass; [2]) was 0 and the “Blackgrass plant response rating (0 to 10 scale)” value (blackgrass; [3]) was 0. The “Blackgrass plant response rating” value (blackgrass; [4]) was 0, the “Blackgrass plant response rating” value (blackgrass; [5]) was 3 and the “Blackgrass plant response rating” value (blackgrass; [6]) was 0. The “Plant response rating, Blackgrass” value (blackgrass; [7]) was 0, the “Blackgrass plant response rating” value (blackgrass; [8]) was 2 and the “B. signalgrass plant response rating” value (surinam grass; [1]) was 0. For the same compound, the “B. signalgrass plant response rating” value (surinam grass; [2]) was 0, the “B. signalgrass plant response rating (0 to 10 scale)” value (surinam grass; [3]) was 4 and the “B. signalgrass plant response rating” value (surinam grass; [4]) was 4. For the same compound, the “B. signalgrass plant response rating” value (surinam grass; [5]) was 6, the “B. signalgrass plant response rating” value (surinam grass; [6]) was 0 and the “Plant response rating, B. signalgrass” value (surinam grass; [7]) was 0. For the same compound, the “B. signalgrass plant response rating” value (surinam grass; Rate 500 g/ha, Postemergence, scale of 0 to 10 where 0 is no effect and 10 is complete control) was 0, the “Cocklebur plant response rating” value (cocklebur; [1]) was 0 and the “Cocklebur plant response rating” value (cocklebur; [2]) was 0. The “Cocklebur plant response rating (0 to 10 scale)” value (cocklebur; [3]) was 0, the “Cocklebur plant response rating” value (cocklebur; [4]) was 0 and the “Cocklebur plant response rating” value (cocklebur; [5]) was 0. For the same compound, the “Cocklebur plant response rating” value (cocklebur; [6]) was 0, the “Plant response rating, Cocklebur” value (cocklebur; [7]) was 0 and the “Cocklebur plant response rating” value (cocklebur; [8]) was 0. The “Corn plant response rating” value (corn; [1]) was 0, the “Corn plant response rating” value (corn; [2]) was 0 and the “Corn plant response rating (0 to 10 scale)” value (corn; [3]) was 0. For the same compound, the “Corn plant response rating” value (corn; [4]) was 0, the “Corn plant response rating” value (corn; [5]) was 0 and the “Corn plant response rating” value (corn; [6]) was 0. For the same compound, the “Plant response rating, Corn” value (corn; [7]) was 0, the “Corn plant response rating” value (corn; [8]) was 0 and the “Crabgrass plant response rating” value (crabgrass; [1]) was 0. The “Crabgrass plant response rating” value (crabgrass; [2]) was 0, the “Crabgrass plant response rating (0 to 10 scale)” value (crabgrass; [3]) was 0 and the “Crabgrass plant response rating” value (crabgrass; [4]) was 1. For the same compound, the “Crabgrass plant response rating” value (crabgrass; [5]) was 3, the “Crabgrass plant response rating” value (crabgrass; [6]) was 0 and the “Plant response rating, Crabgrass” value (crabgrass; [7]) was 2. The “Crabgrass plant response rating” value (crabgrass; [8]) was 3, the “Giant foxtail plant response rating” value (giant foxtail; [1]) was 0 and the “Giant foxtail plant response rating” value (giant foxtail; [2]) was 0. The “Giant foxtail plant response rating (0 to 10 scale)” value (giant foxtail; [3]) was 0, the “Giant foxtail plant response rating” value (giant foxtail; [4]) was 3 and the “Giant foxtail plant response rating” value (giant foxtail; [5]) was 5. For the same compound, the “Giant foxtail plant response rating” value (giant foxtail; [6]) was 0, the “Plant response rating, Giant foxtail” value (giant foxtail; [7]) was 0 and the “Giant foxtail plant response rating” value (giant foxtail; [8]) was 3. The “Morningglory plant response rating” value (morningglory; [1]) was 0, the “Morningglory plant response rating” value (morningglory; [2]) was 0 and the “Morningglory plant response rating (0 to 10 scale)” value (morningglory; [3]) was 0. For the same compound, the “Morningglory plant response rating” value (morningglory; [4]) was 0, the “Morningglory plant response rating” value (morningglory; [5]) was 0 and the “Morningglory plant response rating” value (morningglory; [6]) was 0. For the same compound, the “Plant response rating, Morningglory” value (morningglory; [7]) was 0, the “Morningglory plant response rating” value (morningglory; [8]) was 0 and the “Redroot pigweed plant response rating” value (pigweed; [1]) was 0. The “Redroot pigweed plant response rating” value (pigweed; [2]) was 0, the “Redroot pigweed plant response rating (0 to 10 scale)” value (pigweed; [3]) was 0 and the “Redroot pigweed plant response rating” value (pigweed; [4]) was 0. For the same compound, the “Redroot pigweed plant response rating” value (pigweed; [5]) was 0, the “Redroot pigweed plant response rating” value (pigweed; [6]) was 0 and the “Plant response rating, Redroot pigweed” value (pigweed; [7]) was 0. For the same compound, the “Redroot pigweed plant response rating” value (pigweed; [8]) was 0, the “Rape plant response rating” value (rape; [1]) was 0 and the “Rape plant response rating” value (rape; [2]) was 0. For the same compound, the “Rape plant response rating (0 to 10 scale)” value (rape; [3]) was 0, the “Rape plant response rating” value (rape; [4]) was 0 and the “Rape plant response rating” value (rape; [5]) was 0. The “Rape plant response rating” value (rape; [6]) was 0, the “Plant response rating, Rape” value (rape; [7]) was 0 and the “Rape plant response rating” value (rape; [8]) was 0. For the same compound, the “Soybean plant response rating” value (soybean; [1]) was 0, the “Soybean plant response rating” value (soybean; [2]) was 0 and the “Soybean plant response rating (0 to 10 scale)” value (soybean; [3]) was 0. For the same compound, the “Soybean plant response rating” value (soybean; [4]) was 0, the “Soybean plant response rating” value (soybean; [5]) was 0 and the “Soybean plant response rating” value (soybean; [6]) was 0. The “Plant response rating, Soybean” value (soybean; [7]) was 1, the “Soybean plant response rating” value (soybean; [8]) was 1 and the “Sugarbeets plant response rating” value (sugar beet; [1]) was 0. For the same compound, the “Sugarbeets plant response rating” value (sugar beet; [2]) was 0, the “Sugarbeets plant response rating (0 to 10 scale)” value (sugar beet; [3]) was 0 and the “Sugarbeets plant response rating” value (sugar beet; [4]) was 0. The “Sugarbeets plant response rating” value (sugar beet; [5]) was 0, the “Sugarbeets plant response rating” value (sugar beet; [6]) was 0 and the “Plant response rating, Sugarbeets” value (sugar beet; [7]) was 0. For the same compound, the “Sugarbeets plant response rating” value (sugar beet; [8]) was 0, the “Velvetleaf plant response rating” value (velvetleaf; [2]) was 0 and the “Velvetleaf plant response rating (0 to 10 scale)” value (velvetleaf; [3]) was 0. The “Velvetleaf plant response rating” value (velvetleaf; [4]) was 0, the “Velvetleaf plant response rating” value (velvetleaf; [5]) was 0 and the “Velvetleaf plant response rating” value (velvetleaf; [6]) was 0. The “Plant response rating, Velvetleaf” value (velvetleaf; [7]) was 0, the “Velvetleaf plant response rating” value (velvetleaf; [8]) was 0 and the “Wild oats plant response rating” value (wild oat; [2]) was 0. The “Wild oats plant response rating (0 to 10 scale)” value (wild oat; [3]) was 0, the “Wild oats plant response rating” value (wild oat; [4]) was 0 and the “Wild oats plant response rating” value (wild oat; [5]) was 0. For the same compound, the “Wild oats plant response rating” value (wild oat; [6]) was 0, the “Plant response rating, Wild oats” value (wild oat; [7]) was 0 and the “Wild oats plant response rating” value (wild oat; [8]) was 0. For the same compound, the “Nutsedge plant response rating” value (purple nutsedge; [1]) was 0, the “Nutsedge plant response rating” value (purple nutsedge; [2]) was 0 and the “Nutsedge plant response rating (0 to 10 scale)” value (purple nutsedge; [3]) was 0. The “Nutsedge plant response rating” value (purple nutsedge; [4]) was 0, the “Nutsedge plant response rating” value (purple nutsedge; [5]) was 0 and the “Nutsedge plant response rating” value (purple nutsedge; [6]) was 0. The “Plant response rating, Nutsedge” value (purple nutsedge; [7]) was 0, the “Nutsedge plant response rating” value (purple nutsedge; [8]) was 0 and the “S. Flatsedge plant response rating” value (smallflower flatsedge; [9]) was 0. The “S. Flatsedge plant response rating” value (smallflower flatsedge; [10]) was 0, the “Plant response rating, S. Flatsedge” value (smallflower flatsedge; [11]) was 0 and the “S. Flatsedge plant response rating” value (smallflower flatsedge; Rate 500 g/ha, listed under Postemergence (flood test species), scale 0 to 10) was 0. For the same compound, the “Barnyardgrass plant response rating” value (bamyardgrass; [9]) was 0, the “Barnyardgrass plant response rating” value (bamyardgrass; [10]) was 0 and the “Plant response rating, Barnyardgrass” value (bamyardgrass; [11]) was 0. For the same compound, the “Barnyardgrass plant response rating” value (bamyardgrass; Rate 500 g/ha, listed under Postemergence (flood test species), scale 0 to 10, 0 no effect, 10 complete control) was 0.
